This passage reports IC50 results from patent US20080119513A1, “Sulfonamide Derivative Selectively Inhibiting Mmp-13” (priority 2004, published 2008).

Holding throughout (type): biochemical
The target in assay [1] is T1, MMP-13 (Homo sapiens, UniProt P45452).
T1 construct: catalytic domain (^104Tyr˜^267Gly) was amplified with RT-PCR; His-tag; enterokinase digestion-site
Description: Assay for inhibitory activities on MMPs (fluorogenic peptide substrate), MMP-13. The gist of the method:
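Catalytic domain cloned from IL-1/TNF-stimulated SW1353 cells, His-tagged and expressed in E. coli, then refolded from urea. Activity read by fluorescence on the MOCAc peptide substrate. IC50 taken from % inhibition = {1-(A-B)/(C-D)}×100, with blanks lacking enzyme and/or inhibitor.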

For assay [2], the target named is MMP-9 (Homo sapiens, UniProt P14780). Description: Assay for inhibitory activities on MMPs (fluorogenic peptide substrate), MMP-9. The gist of the method: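 ProMMP-9 purified from TPA-stimulated HT1080 cells and activated with TPCK-trypsin, assayed with fluorogenic MOCAc-Pro-Leu-Gly-Leu-A2Pr(DNP)-Ala-Arg-NH2. Percent inhibition from fluorescence of reactions with and without enzyme and inhibitor; IC50 as concentration giving 50% inhibition.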

Assay [3] concerns the target T2, MMP-2 (Homo sapiens, UniProt P08253).
T2 sequence (P08253 110-660): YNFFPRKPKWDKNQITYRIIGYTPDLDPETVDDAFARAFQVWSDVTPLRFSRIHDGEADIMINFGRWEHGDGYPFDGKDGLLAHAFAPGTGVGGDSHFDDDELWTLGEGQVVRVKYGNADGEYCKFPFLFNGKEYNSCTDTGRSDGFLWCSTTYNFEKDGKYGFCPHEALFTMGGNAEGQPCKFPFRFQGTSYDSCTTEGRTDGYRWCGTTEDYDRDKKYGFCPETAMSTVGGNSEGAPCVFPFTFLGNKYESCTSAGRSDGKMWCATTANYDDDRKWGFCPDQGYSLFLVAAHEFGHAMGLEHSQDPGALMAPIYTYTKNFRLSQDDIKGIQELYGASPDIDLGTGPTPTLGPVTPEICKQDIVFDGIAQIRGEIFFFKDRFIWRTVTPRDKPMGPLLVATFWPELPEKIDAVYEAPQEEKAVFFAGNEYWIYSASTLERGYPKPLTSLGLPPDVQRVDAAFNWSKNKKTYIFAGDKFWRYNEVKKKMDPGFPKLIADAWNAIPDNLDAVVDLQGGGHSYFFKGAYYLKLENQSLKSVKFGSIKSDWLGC
Description: Assay for inhibitory activities on MMPs (fluorogenic peptide substrate), MMP-2. The gist of the method:
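Human MMP-2 activity measured with fluorogenic MOCAc-Pro-Leu-Gly-Leu-A2Pr(DNP)-Ala-Arg-NH2 substrate. Percent inhibition derived from fluorescence with and without enzyme and inhibitor, corrected for substrate and inhibitor background. IC50 taken as concentration giving 50% inhibition.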

Assay [4] addresses T3, MMP-12 (Homo sapiens, UniProt P39900).
T3 construct: In regard to MMP-12, catalytic domain (^100Phe˜^263Gly) was amplified with RT-PCR; His-tag; enterokinase digestion-site
Description: Assay for inhibitory activities on MMPs (fluorogenic peptide substrate), MMP-12. Put shortly: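 Refolded His-tagged human MMP-12 catalytic domain (Phe100–Gly263) expressed in E. coli, assayed with fluorogenic substrate MOCAc-Pro-Leu-Gly-Leu-A2Pr(DNP)-Ala-Arg-NH2. Percent inhibition calculated from fluorescence with and without enzyme and inhibitor, corrected for inhibitor-only and substrate-only blanks; IC50 is concentration giving 50% inhibition.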

In assay [5] the target is T4, MMP-8 (Homo sapiens, UniProt P22894).
T4 construct: In regard to MMP-8, catalytic domain (^99Phe˜^262Gly) was amplified with PCR; His-tag; enterokinase digestion-site
Description: Assay for inhibitory activities on MMPs (fluorogenic peptide substrate), MMP-8. The gist of the method: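 Human MMP-8 catalytic domain (Phe99–Gly262), His-tagged, E. coli-expressed, urea-solubilised, refolded. Fluorogenic substrate MOCAc-Pro-Leu-Gly-Leu-A2Pr(DNP)-Ala-Arg-NH2; fluorescence read with enzyme/inhibitor, substrate/inhibitor, enzyme-only and substrate-only wells. % inhibition = {1-(A−B)/(C−D)}×100; IC50 is concentration giving 50% inhibition.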

Bounds are passed on as bounds.

T3 sequence (P39900 100-263): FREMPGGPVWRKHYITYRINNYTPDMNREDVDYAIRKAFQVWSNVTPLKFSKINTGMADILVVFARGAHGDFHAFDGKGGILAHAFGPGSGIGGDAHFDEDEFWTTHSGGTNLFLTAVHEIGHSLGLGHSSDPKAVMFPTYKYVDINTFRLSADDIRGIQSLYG
T4 sequence (P22894 99-262): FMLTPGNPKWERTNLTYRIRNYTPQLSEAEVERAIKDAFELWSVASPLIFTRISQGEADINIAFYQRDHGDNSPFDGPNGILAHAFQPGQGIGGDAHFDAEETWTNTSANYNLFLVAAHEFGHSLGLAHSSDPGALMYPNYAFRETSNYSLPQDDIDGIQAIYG
Sequence of MMP-9 (P14780 107-707): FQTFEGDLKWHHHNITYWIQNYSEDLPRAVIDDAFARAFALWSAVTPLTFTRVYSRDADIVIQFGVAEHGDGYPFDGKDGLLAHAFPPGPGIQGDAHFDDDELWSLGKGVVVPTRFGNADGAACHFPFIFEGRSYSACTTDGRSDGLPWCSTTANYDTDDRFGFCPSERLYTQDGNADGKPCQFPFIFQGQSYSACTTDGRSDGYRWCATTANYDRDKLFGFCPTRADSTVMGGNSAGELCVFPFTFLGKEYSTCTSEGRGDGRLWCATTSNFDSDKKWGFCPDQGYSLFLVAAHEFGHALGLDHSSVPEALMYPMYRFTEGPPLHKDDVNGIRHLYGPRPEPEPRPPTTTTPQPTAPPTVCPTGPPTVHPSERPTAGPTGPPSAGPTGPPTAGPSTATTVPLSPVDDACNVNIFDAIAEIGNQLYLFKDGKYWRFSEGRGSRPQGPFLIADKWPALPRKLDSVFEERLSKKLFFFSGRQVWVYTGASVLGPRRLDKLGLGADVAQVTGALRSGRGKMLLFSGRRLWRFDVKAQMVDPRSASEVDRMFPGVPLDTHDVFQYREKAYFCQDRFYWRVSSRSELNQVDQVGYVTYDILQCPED

Take `COc1ccc(C(=O)Nc2ccc(-c3ccc(S(=O)(=O)N[C@H](Cc4ccccc4)C(=O)O)cc3)cc2)cc1OC` [VI-8]: the IC50 in assay [1] was 27.2 nM; in assay [2], greater than 10000 nM; in assay [3], 1050 nM; in assay [4], 839 nM; in assay [5], 723 nM.
For the compound `O=C(/C=C/c1ccccc1)Nc1ccc(-c2ccc(S(=O)(=O)N[C@H](Cc3ccccc3)C(=O)O)cc2)cc1` [VI-9], the IC50 was 44.6 nM in assay [1]; greater than 10000 nM in assay [2]; 178 nM in assay [3]; greater than 10000 nM in assay [4]; greater than 10000 nM in assay [5].
Consider `O=C(Nc1ccc(-c2ccc(S(=O)(=O)N[C@H](Cc3ccccc3)C(=O)O)cc2)cc1)c1ccc2ccccc2c1` [VI-10], for which the IC50 in assay [1] is 21.4 nM; in assay [2], greater than 10000 nM; in assay [3], greater than 10000 nM; in assay [4], greater than 10000 nM; in assay [5] it was greater than 10000 nM.
As to `O=C(Nc1ccc(-c2ccc(S(=O)(=O)N[C@H](Cc3ccccc3)C(=O)O)cc2)cc1)c1ccc(F)c(F)c1` [VI-11], the IC50 in assay [1] is 38.8 nM; in assay [2], greater than 10000 nM; in assay [3] it was 139 nM; in assay [4], 9010 nM; in assay [5] it was greater than 10000 nM.
As to `O=C(Nc1ccc(-c2ccc(S(=O)(=O)N[C@H](Cc3ccccc3)C(=O)O)cc2)cc1)c1ccc2c(c1)OCO2` [VI-12], the IC50 in assay [1] was 31.1 nM; in assay [2], greater than 10000 nM; in assay [3], 197 nM; in assay [4], 334 nM; in assay [5], 1740 nM.
`O=C(C#Cc1ccccc1)Nc1ccc(-c2ccc(S(=O)(=O)N[C@H](Cc3ccccc3)C(=O)O)cc2)cc1` [VI-13]: the IC50 was 27.2 nM in assay [1]; greater than 10000 nM in assay [2]; 167 nM in assay [3]; 503 nM in assay [4]; 641 nM in assay [5].
Turning to `COc1ccc(C(=O)Nc2ccc(-c3ccc(S(=O)(=O)N[C@H](C)C(=O)O)cc3)cc2)cc1` [VI-15], the IC50 in assay [1] was 55.5 nM; in assay [2] it was greater than 10000 nM; in assay [3], 222 nM; in assay [4], 801 nM; in assay [5], greater than 10000 nM.
With `COc1cccc(C(=O)Nc2ccc(-c3ccc(S(=O)(=O)N[C@H](C)C(=O)O)cc3)cc2)c1` [VI-16], the IC50 in assay [1] is 77.1 nM; in assay [2] it was greater than 10000 nM; in assay [3], 563 nM; in assay [4] it was 1020 nM; in assay [5], 1100 nM.
As for `Cc1ccc(C(=O)Nc2ccc(-c3ccc(S(=O)(=O)N[C@H](C)C(=O)O)cc3)cc2)cc1` [VI-17], the IC50 in assay [1] is 35.6 nM; in assay [2], greater than 10000 nM; in assay [3] it was 127 nM; in assay [4], 952 nM; in assay [5], greater than 10000 nM.
`C[C@@H](NS(=O)(=O)c1ccc(-c2ccc(NC(=O)c3ccc(OC(F)(F)F)cc3)cc2)cc1)C(=O)O` [VI-21]: the IC50 in assay [1] is 36.8 nM; in assay [2], greater than 10000 nM; in assay [3], 105 nM; in assay [4], 522 nM; in assay [5], greater than 10000 nM.
As to `COc1ccc(C(=O)Nc2ccc(-c3ccc(S(=O)(=O)N[C@H](C)C(=O)O)cc3)cc2)cc1OC` [VI-24], the IC50 in assay [1] was 50.1 nM; in assay [2], greater than 10000 nM; in assay [3], 839 nM; in assay [4] it was 443 nM; in assay [5] it was 1520 nM.
As to `COc1ccc(C(=O)Nc2ccc(-c3ccc(S(=O)(=O)N[C@@H](CCSC)C(=O)O)cc3)cc2)cc1OC` [VI-35], the IC50 in assay [1] was 68.7 nM; in assay [2], greater than 10000 nM; in assay [3], 2220 nM; in assay [4], 232 nM; in assay [5], 215 nM.
Consider `O=C(Nc1ccc(-c2ccc(S(=O)(=O)N[C@@H](Cc3ccccc3)C(=O)O)cc2)cc1)c1ccc2ccccc2c1` [VI-36], for which the IC50 is 65.1 nM in assay [1]; greater than 10000 nM in assay [2]; greater than 10000 nM in assay [3]; 7970 nM in assay [4]; greater than 10000 nM in assay [5].
On to `C[C@@H](NS(=O)(=O)c1ccc(-c2ccc(NC(=O)c3ccc4ccccc4c3)cc2)cc1)C(=O)O` [VI-37], for which the IC50 in assay [1] is 38.1 nM; in assay [2], greater than 10000 nM; in assay [3], 726 nM; in assay [4] it was greater than 10000 nM; in assay [5], greater than 10000 nM.
For `CC(C)[C@@H](NS(=O)(=O)c1ccc(-c2ccc(NC(=O)c3ccc4ccccc4c3)cc2)cc1)C(=O)O` [VI-39], the IC50 in assay [1] was 81.1 nM; in assay [2], greater than 10000 nM; in assay [3], 664 nM; in assay [4] it was greater than 10000 nM; in assay [5] it was 5400 nM.
Consider `CC(C)C[C@@H](NS(=O)(=O)c1ccc(-c2ccc(NC(=O)c3ccc4ccccc4c3)cc2)cc1)C(=O)O` [VI-41], for which the IC50 in assay [1] is 178 nM; in assay [2], greater than 10000 nM; in assay [3], greater than 10000 nM; in assay [4], greater than 10000 nM; in assay [5], greater than 10000 nM.
Turning to `CCC(C)[C@H](NS(=O)(=O)c1ccc(-c2ccc(NC(=O)c3ccc4ccccc4c3)cc2)cc1)C(=O)O` (stereo partly shown) [VI-43], the IC50 was 13.7 nM in assay [1]; greater than 10000 nM in assay [2]; 243 nM in assay [3]; 66.9 nM in assay [4]; 63.2 nM in assay [5].
On the same counts, the results for `CSCC[C@H](NS(=O)(=O)c1ccc(-c2ccc(NC(=O)c3ccc4ccccc4c3)cc2)cc1)C(=O)O` [VI-44] are 48.4 nM, greater than 10000 nM, 502 nM, 162 nM and 252 nM.
Taken in the same sequence, the figures for `COc1ccc2cc(C(=O)Nc3ccc(-c4ccc(S(=O)(=O)N[C@H](Cc5ccccc5)C(=O)O)cc4)cc3)ccc2c1` [VI-45] were 61.3 nM, greater than 10000 nM, greater than 10000 nM, greater than 10000 nM and greater than 10000 nM.
On the same counts, the results for `O=C(Nc1ccc(-c2ccc(S(=O)(=O)N[C@H](Cc3ccccc3)C(=O)O)cc2)cc1)c1cc2ccccc2s1` [VI-47] are 136 nM, greater than 10000 nM, greater than 10000 nM, greater than 10000 nM and greater than 10000 nM.
In the case of `CC(C)(C)[C@H](NS(=O)(=O)c1ccc(-c2ccc(NC(=O)c3cc4ccccc4s3)cc2)cc1)C(=O)O` [VI-49], the concentration for half-maximal inhibition (IC50) in assay [1] was 10 nM; in assay [2], greater than 10000 nM; in assay [3], 241 nM; in assay [4] it was 98.8 nM; in assay [5], 158 nM.
Taken in the same sequence, the figures for `O=C(Nc1ccc(-c2ccc(S(=O)(=O)N[C@H](Cc3ccccc3)C(=O)O)s2)cc1)c1ccc2ccccc2c1` [VI-51] were 22.2 nM, greater than 10000 nM, 292 nM, greater than 10000 nM and greater than 10000 nM.
Regarding `CC(C)[C@@H](NS(=O)(=O)c1ccc(-c2ccc(COc3ccc4ccccc4c3)cc2)cc1)C(=O)O` [VII-12], the IC50 in assay [1] is 26.2 nM; in assay [2], greater than 10000 nM; in assay [3], 3720 nM; in assay [4] it was 95.7 nM; in assay [5], 140 nM.
